Laboratory results as given in PubChem BioAssay (NCI).
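Five compound concentrations were applied to cells in 96-well plates for 48 hours; endpoints were derived by simple linear interpolation of the resulting dose-response curve. At the GI50, growth is halved. TGI is the concentration that stops growth completely.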

Columns and labels:
Test in all cases: growth of human tumour cells (NCI), 48 h
HOP-62 NSCLC = system: HOP-62 NSCLC
A549 NSCLC = system: A549 NSCLC
MOLT-4 leukemia = system: MOLT-4 leukemia
SNB-19 CNS = system: SNB-19 CNS
HCT-15 colon = system: HCT-15 colon
SR leukemia = system: SR leukemia
SW-620 colon = system: SW-620 colon
TK-10 renal = system: TK-10 renal
HS 578T breast = system: HS 578T breast
MDA-MB-231 breast = system: MDA-MB-231 breast

Structure (SMILES)	TGI (HOP-62 NSCLC) [µM]	TGI (A549 NSCLC) [µM]	TGI (MOLT-4 leukemia) [µM]	TGI (SNB-19 CNS) [µM]	TGI (HCT-15 colon) [µM]	TGI (SR leukemia) [µM]	TGI (SW-620 colon) [µM]	GI50 (TK-10 renal) [µM]	TGI (TK-10 renal) [µM]	GI50 (A549 NSCLC) [µM]	GI50 (MOLT-4 leukemia) [µM]	GI50 (SNB-19 CNS) [µM]	GI50 (HCT-15 colon) [µM]	GI50 (SR leukemia) [µM]	GI50 (SW-620 colon) [µM]	GI50 (HOP-62 NSCLC) [µM]	GI50 (HS 578T breast) [µM]	TGI (HS 578T breast) [µM]	GI50 (MDA-MB-231 breast) [µM]	TGI (MDA-MB-231 breast) [µM]
COc1cc(Br)c(C=Nc2cccc3ccc(OS(=O)(=O)c4cccc([N+](=O)[O-])c4)cc23)cc1OC	> 100	> 100	> 100	> 100	> 100	> 100	> 100													
N.N.N.N.N.N.O=N[O-].[Br-].[Co+3].[Co+3].[OH3+].[OH3+]		> 100	> 100	> 100	> 100	> 100	> 100	> 100	> 100	> 100	> 100	> 100	> 100	> 100	> 100					
Cc1nn(-c2ccccc2)c(-c2ccccc2[N+](=O)[O-])c1CC#N	> 100	> 100	> 100	> 100	> 100				> 100											
COc1ccc2c(c1)[n+]([O-])c(/C(C)=N/NC(=O)CC#N)c[n+]2[O-]	> 100	> 100	> 100	> 100	> 100	> 100	25.8		> 100											
COc1ccc(Cn2c(Cl)c(/C=C3/C(=O)Nc4ccccc43)c3cc(OC)c(C)cc32)cc1	> 100	> 100	> 100	> 100	> 100		> 100	13.3	> 100	7.86	5.55	4.09	4.15		3.46	5.67	2.32	> 100	4.22	> 100
Nc1nc(CCC(=O)Nc2cccc(C(F)(F)F)c2)cc(-c2ccc3ccccc3c2)n1	> 100	> 100	> 100	> 100	> 100	> 100	> 100		> 100											
Cc1ccc(SC(=O)N2C(=S)NC(=NC3CCCCC3)C23CCCCC3)cc1	> 100	> 100		> 100	> 100	> 100	> 100		> 100									> 100		> 100
S=c1nc(-c2cccnc2)[nH][nH]1	> 100	> 100		> 100	> 100	> 100	> 100		> 100											
CCOC(=O)[C@H]1Nc2ccc(OC)cc2C2c3ccccc3CC21 (stereo not given in full)	> 100	> 100	> 100	> 100	> 100	> 100	> 100		> 100											
O=C(OC[C@H]1O[C@@H](OC(=O)c2cc(O)c(O)c(O)c2)[C@H](OC(=O)c2cc(O)c(O)c(O)c2)[C@@H](OC(=O)c2cc(O)c(O)c(O)c2)[C@@H]1OC(=O)c1cc(O)c(O)c(O)c1)c1cc(O)c(O)c(O)c1	14.4	19.8	86.5	> 100	> 100	> 100	> 100		66											
CCC(c1cccc(O)c1)C(CC)c1cccc(O)c1 (stereo not given)	17.4	24.2		26	14.8		16.4	2.93	20.4	8.58		13.2	3.52		4.44	4.89	1.96	9.77	6.21	19.6
COC(=O)C1=C(CS(=O)c2ccccc2[N+](=O)[O-])ON(C)C1c1ccccc1 (stereo not given)	> 100	> 100	> 100	> 100	76.3		88.6		> 100											
O=c1ccc(=O)c2c(=O)c3ccccc3c(=O)c1=2	> 100	> 100	> 100	> 100	> 100		> 100		> 100											
COc1ccc(C2CC(n3nnnc3-c3ccccc3)=NN2)cc1 (stereo not given)	45.8		42.6	> 100	26.2	> 100	25.1				5.99	18.1	2.16	35.6	2.82	12.8	19.7	70.3	0.564	12.8
CC(=O)OC1[C@H]2c3cc4c(cc3CN3CCC(=C[C@@H]1O)C23)OCO4 (stereo not given in full)	> 100	> 100	> 100	> 100	> 100	> 100	> 100		> 100											
Oc1ccccc1-c1nc2c3ccccc3c3ccccc3c2[nH]1	15	17.9	10.7	24.9	17.9		22.4	9.26	20.8	6.08	2.76	12.4	5.31		10.6	3.93	12.4	29.7	1.96	4.44
Cc1c2cc[n+](C)cc2c(C)c2c1[nH]c1ccc(O)c(OCC(F)(F)F)c12	5.28	12.4	22.1	5.33			> 55		29.1											
C=C1C(=O)OC2/C=C(\C=O)CC/C=C(\C)C(O)C[C@@H]12 (stereo not given in full)	61.3	33.9	21.4	29.1	14.9	> 27.6	10.9		24.7											
C[N+]1(C)C/C(=C\c2ccncc2)C(=O)/C(=C/c2ccncc2)C1	> 100	> 100	> 100	> 100	> 100	> 100	> 100		> 100											
CC(C)(C)NC(=O)[C@H]1C[C@H]2CCCC[C@H]2CN1C[C@@H](O)[C@H](Cc1ccccc1)NC(=O)[C@H](CC(N)=O)NC(=O)c1ccc2ccccc2n1	30.7	31	21.8	23	33.8		48.8	15.4	36.6	13.2	1.9	7.97	14		20.3	15.2	16.4	60.2	13	26.7
